Laboratory results taken from paper PMC6985109, “Cellular apoptosis and necrosis as therapeutic targets for novel Eugenol Tosylate Congeners against Candida albicans” (Scientific Reports, 2020).
Values after ≈ are worked out from the molar mass of the structure shown.

What was measured:
[1] = test system: horse red blood cells; assay: Cytotoxicity by haemolytic assay; format: cell-based; conditions: 2 × MIC, 60 minutes at 37 °C, horse RBCs
Description: The cytotoxicity of the test compounds was determined on horse red blood cells (NHLS, Johannesburg, South Africa) by testing the haemolytic activity of these compounds using the method described previously, with some modifications. Briefly, in a sterile 15 ml falcon tube 5 ml of horse blood was centrifuged at 2000 × rpm for 10 minutes. The supernatant was discarded, and the cell pellet was washed three times with chilled PBS solution. The final pellet was used to yield a 10% RBC suspension with chilled PBS. The 10% suspension were further diluted to 1:10 in PBS, then 100 µl of this suspension was added to different concentration of test compounds (0.5 × MIC, 1 × MIC and 2 × MIC) in 1.5 ml tubes. The tubes were then incubated for 60 minutes at 37 °C followed by centrifugation at 2000 × rpm for 10 minutes. From each tube, 200 µl of the supernatant was transferred to a flat-bottomed 96-well microtiter plate and absorbance was monitored at 450 nm spectrophotometrically with an iMark microplate reader (Bio-Rad laboratories, CA, USA). Triton X-100 (1%) and PBS were used as positive and negative controls respectively. The percentage of haemolysis was calculated by the following equation: %haemolysis=A450oftestcompoundtreatedsample−A450ofbuffertreatedsample/A450of1%TritonX−100treatedsample−A450ofbuffertreatedsample×100%

[2] = test system: Candida albicans 5112; assay: Broth microdilution antifungal susceptibility (MIC/MFC); format: cell-based; conditions: strain 5112, FLC resistant
Description: (§1) In this study, 10 clinical Candida albicans isolates, comprising of 5 fluconazole susceptible and 5 fluconazole resistant, were used. C. albicans SC5314 was also used as a control laboratory strain. Clinical strains used in this study were stored at −80 °C supplemented with 20% glycerol in the Department of Clinical Microbiology and Infectious Diseases, University of the Witwatersrand, Johannesburg and were previously collected under the ethical clearance number M000402, obtained from the Human Research Ethics Committee, University of the Witwatersrand. For experimental purpose each strain from glycerol stock was recovered on Sabouraud Dextrose (SDA) agar plates at 37 °C for 24 h.
(§2) Minimum Inhibitory Concentration (MIC) and Minimum Fungicidal Concentrations (MFC) of all newly synthesized eugenol-tosylate congeners (ETC-1–ETC-7) against C. albicans strains were determined by broth microdilution assay in accordance with the approved guidelines described by Clinical and Laboratory Standards Institute (CLSI) guidelines M27-A[38]. The test compounds were prepared in 1% DMSO to a stock concentration of 8192 µg/ml. Two-fold dilutions of test compounds (100 µL) were prepared in 96-well flat-bottom microtiter plates, inoculated with 100 µl of inoculum (1 × 10^6 cells/mL) and incubated at 37 °C for 24 hours. In every set of experiment, positive control (fluconazole), negative vehicle control (1% DMSO) and culture control (media and cells only) were included. MIC’s were determined visibly as the lowest concentration of the test compounds that inhibited growth of test organism. To determine MFC, each well without visible growth was sub-cultured onto agar plates. Concentration in the first well with no growth on plate was taken as MFC. […] The experiment was performed in triplicate to validate the results.

[3] = test system: Candida albicans 4135; assay: as above; format: cell-based; conditions: strain 4135, FLC resistant
Description: as §1, §2

[4] = test system: Candida albicans 4324; assay: as above; format: cell-based; conditions: strain 4324, FLC resistant
Description: as §1, §2

[5] = test system: Candida albicans 4122; assay: as above; format: cell-based; conditions: strain 4122, FLC resistant
Description: as §1, §2

[6] = test system: Candida albicans 4563; assay: as above; format: cell-based; conditions: strain 4563, FLC susceptible
Description: as §1, §2

[7] = test system: Candida albicans 4175; assay: as above; format: cell-based; conditions: Candida albicans, strain 4175, FLC susceptible
Description: as §1, §2

[8] = test system: C. albicans 4175, C. albicans 5112 and C. albicans SC5314; assay: TUNEL assay for DNA damage; format: cell-based, Candida albicans; conditions: 0.5 × MIC, 1 × MIC and 2 × MIC, compared to the negative control; dose dependent
Description: To study the effect of test compounds on apoptotic markers protoplasts were prepared as described previously, with modifications. Briefly, mid-exponential phase cells were harvested and exposed to various concentrations of test compounds (0.5 × MIC, 1 × MIC and 2×MIC) for 3 h. The cells were then washed twice with protoplast buffer- I (1 M sorbitol, 50 mM tris base, 10 mM MgCl2 and 30 mM DTT) and incubated in the same buffer for 15 minutes at 25 °C, followed by centrifugation at 1500 rpm for 5 minutes. Supernatant was removed and cells were incubated with buffer- II (1 M sorbitol, 50 mM tris base, 10 mM MgCl2 and 1 mM DTT) supplemented with lyticase enzyme (≥1 µg/mL) used to digest the cell wall for 1 h at 25 °C. Buffer- II were removed by centrifugation and then cells were incubated with buffer- III (1 M sorbitol, 50 mM tris base and 10 mM MgCl2) for 20 minutes at room temperature. After the incubation cells were again centrifuged at 1500 rpm for 5 minutes and supernatant was discarded. […]
TUNEL assay was used to detect the DNA damage, a hallmark for late stages of apoptosis. […] Slides were examined by fluorescence microscopy using Zeiss Laser Scanning Confocal Microscope (LSM) 780 (Carl Zeiss Microscopy, Jena, Germany) with an excitation wavelength of 495 nm and emission wavelength of 519 nm. […] Images were further analyzed by using software ImageJ.

`C=CCc1ccc(OS(=O)(=O)c2ccc(C(=O)O)cc2)c(OC)c1` [ETC-7, 4-{[2-methoxy-4-(prop-2-en-1-yl)phenoxy]sulfonyl}benzoic acid] showed a haemolytic activity [1] of 8.91%, an MFC [2] of 16 µg/mL (≈ 45.9 µM) and an MIC ([2]; 37 °C, 24 h) of 8 µg/mL (≈ 23 µM). The MFC [3] was 8 µg/mL (≈ 23 µM), the MIC ([3]; 37 °C, 24 h) was 4 µg/mL (≈ 11.5 µM) and the MFC [4] was 8 µg/mL (≈ 23 µM). It also gave an MIC ([4]; 37 °C, 24 h) of 4 µg/mL (≈ 11.5 µM), an MFC [5] of 16 µg/mL (≈ 45.9 µM) and an MIC ([5]; 37 °C, 24 h) of 8 µg/mL (≈ 23 µM). The MFC [6] was 2 µg/mL (≈ 5.74 µM), the MIC ([6]; 37 °C, 24 h) was 1 µg/mL (≈ 2.87 µM) and the MFC [7] was 2 µg/mL (≈ 5.74 µM). For the same molecule, the MIC ([7]; 37 °C, 24 h, read-out: MIC) was 1 µg/mL (≈ 2.87 µM) and the “TUNEL positive nuclei (DNA fragmentation)” value [8] was “significant increase in proportion of TUNEL positive nuclei”.
